# “Also recorded” adds a separate entry of the source.
# Tests used:
# fermentation cultures [1] = test: DME toxicity study: viability by colony forming units (CFU) after 24 hours; assay type: cell-based
# Description: (§1) Toxicity studies were performed to determine the effects of DME on fermentation cultures. Cell growth, viability and solvent production were measured to determine what effect DME has on fermentation cultures. Cell growth was monitored by absorption measurements taken at 600 nm (A600). Viability was measured by counting the colony forming units (CFU) after 24 hours. Solvent production was quantified by HPLC.
# (§2) The first round of testing was performed using media that had been sparged with DME gas at 23° C. The amount of DME absorbed into the media was measured by weight gain after sparging. […] Two control cultures were also used for direct comparison of cultures with and without the presence of DME.
# fermentation cultures [2] = test: DME toxicity study: solvent production / metabolite analysis by HPLC; assay type: cell-based; conditions: for Acetate concentration / Acetoin concentration / Acetone concentration / Butanol concentration / Butyrate concentration / Ethanol concentration / Glucose concentration: 196 hours after inoculation
# Description: as §1, §2
# A second round of testing was performed at lower DME concentrations. The concentration of DME varied from 0.7 wt. % to 2.9 wt. %. Cell densities were measured between 3 and 64 hours after inoculation. […] Based on the solvent measurements in Table 8 and Table 9 solvent production was also unaffected by DME at 0.7 wt. %. […] This is apparent after examination of the cell density and solvent production for samples 1-5, 2-1, 2-4 and 2-5 in comparison to the control samples 1-B and 2-B.
# [3] = DME saturation concentration in fermentation broth; assay type: physicochemical; conditions: fermentation conditions of 38° C.
# [4] = cited from earlier work
# [5] = culture 2-1, weight % DME printed as ?
smiles,measurement,setting,value
"COC [DME, dimethyl ether]",effect on cell viability (CFU),"fermentation cultures [1]; DME approximately 3 wt. %, cultures 1-2 and 1-3",not toxic
same,effect on cell viability (CFU),"fermentation cultures [1]; DME approximately 4 wt. %, second set of cultures",toxicity issues
same,CFU/ml after 24 hours,"fermentation cultures [1]; culture 1-1, […] DME",770 CFU/ml
same,CFU/ml after 24 hours,"fermentation cultures [1]; culture 1-2, 3.48% DME",>10000 CFU/ml
same,CFU/ml after 24 hours,"fermentation cultures [1]; culture 1-3, […] DME",200000 CFU/ml
same,CFU/ml after 24 hours,fermentation cultures [1]; [5],0 CFU/ml
same,CFU/ml after 24 hours,"fermentation cultures [1]; culture 2-2, 3.92% DME",4480 CFU/ml
same,CFU/ml after 24 hours,"fermentation cultures [1]; culture 2-3, 3.72% DME",130 CFU/ml
same,effect on solvent production,fermentation cultures [2]; DME at 0.7 wt. %,unaffected; also recorded: no noticeable effect
same,Metabolite conc. Final Acetate,"fermentation cultures [2]; culture 1-2, 3.48% DME",42.01 mM
same,Metabolite conc. Final Acetoin,"fermentation cultures [2]; culture 1-2, 3.48% DME",0.00 mM
same,Metabolite conc. Final Acetone,"fermentation cultures [2]; culture 1-2, 3.48% DME",0.00 mM
same,Metabolite conc. Final Butanol,"fermentation cultures [2]; culture 1-2, 3.48% DME",0.00 mM
same,Metabolite conc. Final Butyrate,"fermentation cultures [2]; culture 1-2, 3.48% DME",101.72 mM
same,Metabolite conc. Final Ethanol,"fermentation cultures [2]; culture 1-2, 3.48% DME",0.00 mM
same,Metabolite conc. Final Glucose,"fermentation cultures [2]; culture 1-2, 3.48% DME",410.70 mM
same,Acetate concentration,"fermentation cultures [2]; culture 1-2, DME 18.1 g/L",45.7 mM
same,Acetoin concentration,"fermentation cultures [2]; culture 1-2, DME 18.1 g/L",1.7 mM
same,Acetone concentration,"fermentation cultures [2]; culture 1-2, DME 18.1 g/L",4.9 mM
same,Butanol concentration,"fermentation cultures [2]; culture 1-2, DME 18.1 g/L",11.7 mM
same,Butyrate concentration,"fermentation cultures [2]; culture 1-2, DME 18.1 g/L",80.8 mM
same,Ethanol concentration,"fermentation cultures [2]; culture 1-2, DME 18.1 g/L",1.9 mM
same,Glucose concentration,"fermentation cultures [2]; culture 1-2, DME 18.1 g/L",381.5 mM
same,Metabolite conc. Final Acetate,"fermentation cultures [2]; culture 1-3, […] DME",47.46 mM
same,Metabolite conc. Final Acetoin,"fermentation cultures [2]; culture 1-3, […] DME",0.00 mM
same,Metabolite conc. Final Acetone,"fermentation cultures [2]; culture 1-3, […] DME",8.33 mM
same,Metabolite conc. Final Butanol,"fermentation cultures [2]; culture 1-3, […] DME",14.84 mM
same,Metabolite conc. Final Butyrate,"fermentation cultures [2]; culture 1-3, […] DME",89.52 mM
same,Metabolite conc. Final Ethanol,"fermentation cultures [2]; culture 1-3, […] DME",0.00 mM
same,Metabolite conc. Final Glucose,"fermentation cultures [2]; culture 1-3, […] DME",380.17 mM
same,Metabolite conc. Final Acetate,fermentation cultures [2]; [5],33.46 mM
same,Metabolite conc. Final Acetoin,fermentation cultures [2]; [5],0.00 mM
same,Metabolite conc. Final Acetone,fermentation cultures [2]; [5],0.00 mM
same,Metabolite conc. Final Butanol,fermentation cultures [2]; [5],0.00 mM
same,Metabolite conc. Final Butyrate,fermentation cultures [2]; [5],94.00 mM
same,Metabolite conc. Final Ethanol,fermentation cultures [2]; [5],0.00 mM
same,Metabolite conc. Final Glucose,fermentation cultures [2]; [5],432.02 mM
same,Metabolite conc. Final Acetate,"fermentation cultures [2]; culture 2-2, 3.92% DME",42.17 mM
same,Metabolite conc. Final Acetoin,"fermentation cultures [2]; culture 2-2, 3.92% DME",0.00 mM
same,Metabolite conc. Final Acetone,"fermentation cultures [2]; culture 2-2, 3.92% DME",0.00 mM
same,Metabolite conc. Final Butanol,"fermentation cultures [2]; culture 2-2, 3.92% DME",0.00 mM
same,Metabolite conc. Final Butyrate,"fermentation cultures [2]; culture 2-2, 3.92% DME",91.28 mM
same,Metabolite conc. Final Ethanol,"fermentation cultures [2]; culture 2-2, 3.92% DME",0.00 mM
same,Metabolite conc. Final Glucose,"fermentation cultures [2]; culture 2-2, 3.92% DME",418.43 mM
same,Acetone concentration,"fermentation cultures [2]; culture 2-2, DME 6.8 g/L",10.2 mM
same,Butanol concentration,"fermentation cultures [2]; culture 2-2, DME 6.8 g/L",23.6 mM
same,Butyrate concentration,"fermentation cultures [2]; culture 2-2, DME 6.8 g/L",55.7 mM
same,Ethanol concentration,"fermentation cultures [2]; culture 2-2, DME 6.8 g/L",3.8 mM
same,Metabolite conc. Final Acetate,"fermentation cultures [2]; culture 2-3, 3.72% DME",34.46 mM
same,Metabolite conc. Final Acetoin,"fermentation cultures [2]; culture 2-3, 3.72% DME","0,00 mM"
same,Metabolite conc. Final Acetone,"fermentation cultures [2]; culture 2-3, 3.72% DME",0.00 mM
same,Metabolite conc. Final Butyrate,"fermentation cultures [2]; culture 2-3, 3.72% DME",86.91 mM
same,Metabolite conc. Final Ethanol,"fermentation cultures [2]; culture 2-3, 3.72% DME",0.00 mM
same,Acetate concentration,"fermentation cultures [2]; culture 2-3, DME 6.6 g/L",44.6 mM
same,Acetoin concentration,"fermentation cultures [2]; culture 2-3, DME 6.6 g/L",5.6 mM
same,Acetone concentration,"fermentation cultures [2]; culture 2-3, DME 6.6 g/L",9.6 mM
same,Butanol concentration,"fermentation cultures [2]; culture 2-3, DME 6.6 g/L",21.6 mM
same,Butyrate concentration,"fermentation cultures [2]; culture 2-3, DME 6.6 g/L",57.3 mM
same,Ethanol concentration,"fermentation cultures [2]; culture 2-3, DME 6.6 g/L",3.8 mM
same,Glucose concentration,"fermentation cultures [2]; culture 2-3, DME 6.6 g/L",338.3 mM
same,Acetate concentration,"fermentation cultures [2]; culture 2-4, DME 29.1 g/L",42.5 mM
same,Acetoin concentration,"fermentation cultures [2]; culture 2-4, DME 29.1 g/L",0.0 mM
same,Acetone concentration,"fermentation cultures [2]; culture 2-4, DME 29.1 g/L",2.1 mM
same,Butanol concentration,"fermentation cultures [2]; culture 2-4, DME 29.1 g/L",3.7 mM
same,Butyrate concentration,"fermentation cultures [2]; culture 2-4, DME 29.1 g/L",94.8 mM
same,Ethanol concentration,"fermentation cultures [2]; culture 2-4, DME 29.1 g/L",0.0 mM
same,Glucose concentration,"fermentation cultures [2]; culture 2-4, DME 29.1 g/L",403.0 mM
same,Acetate concentration,"fermentation cultures [2]; culture 2-5, DME 27.9 g/L",41.7 mM
same,Acetoin concentration,"fermentation cultures [2]; culture 2-5, DME 27.9 g/L",0.0 mM
same,Acetone concentration,"fermentation cultures [2]; culture 2-5, DME 27.9 g/L",4.3 mM
same,Butanol concentration,"fermentation cultures [2]; culture 2-5, DME 27.9 g/L",7.2 mM
same,Butyrate concentration,"fermentation cultures [2]; culture 2-5, DME 27.9 g/L",94.5 mM
same,Ethanol concentration,"fermentation cultures [2]; culture 2-5, DME 27.9 g/L",0.0 mM
same,Glucose concentration,"fermentation cultures [2]; culture 2-5, DME 27.9 g/L",396.9 mM
same,effect on solvent production,"fermentation cultures [2]; cultures containing DME, 3 to 4 wt. %",greatly reduced
same,amount of DME in the broth (saturation),[3],~2.3 wt. %
same,solubility in water,[4],approximately 20 wt. %

# Reference: patent US9630894B2, “Energy efficient method and apparatus for the extraction of biomolecules from dilute aqueous solution” (DYNASEP INC., priority 2012, dated 2017)
